# Reference: ChEMBL document CHEMBL4725478, “Spiroindoline-Capped Selective HDAC6 Inhibitors: Design, Synthesis, Structural Analysis, and Biological Evaluation” (ACS Med Chem Lett, 2020)
# Active and inactive are the calls of the source. The rule behind the calls is not given here.
# Tests used:
# NB-4 [1] = assay: Induction of apoptosis in human NB-4 cells assessed as increase in cleaved PARP expression at 10 uM measured after 24 to 48 hrs by Western blot analysis; assay type: functional, cell-based; details: time hrs 24-48
# OE33 = assay: Antiproliferative activity against human OE33 cells assessed as reduction in cell viability measured after 72 hrs by MTT assay; assay type: functional, cell-based; details: OE33, 72 h
# Ca9-22 = assay: Antiproliferative activity against human Ca9-22 cells assessed as reduction in cell viability measured after 48 hrs by alamar blue dye based spectrofluorometry; assay type: functional; details: Ca9-22, 48 h
# [2] = Antiproliferative activity against human TR-146 cells assessed as reduction in cell viability measured after 48 hrs by alamar blue dye based spectrofluorometry; assay type: functional; details: TR146, 48 h
# KYSE-520 cell line [3] = assay: Antiproliferative activity against human KYSE520 cells assessed as reduction in cell viability measured after 48 hrs by alamar blue dye based spectrofluorometry; assay type: functional; details: KYSE-520, 48 h
# NB-4 [4] = assay: Cell cycle arrest in human NB-4 cells at 5 to 10 uM measured after 24 to 48 hrs by propidium iodide staining based flow cytometry; assay type: functional; details: dose microM 5-10, time hrs 24-48
# Histone deacetylase = assay: Inhibition of HDAC in human NB-4 cells assessed as effect on histone acetylation at 10 uM measured after 24 to 48 hrs by Western blot analysis; assay type: cell-based; details: nb-4, 10 µM, time 24-48 hrs
# Histone deacetylase 1 [5] = target: T1, Histone deacetylase 1 (Homo sapiens, UniProt Q13547); assay: Inhibition of full length C-terminal His/FLAG-tagged human HDAC1 expressed in baculovirus expression system using ZMAL as substrate incubated for 90 mins by fluorescence assay
# [6] = target: T2, Protein deacetylase HDAC6 (Homo sapiens, UniProt Q9UBN7); assay: Inhibition of full length N-terminal GST-tagged human HDAC6 expressed in baculovirus expression system using ZMAL as substrate incubated for 90 mins by fluorescence assay
# T2 sequence (Q9UBN7 whole entry): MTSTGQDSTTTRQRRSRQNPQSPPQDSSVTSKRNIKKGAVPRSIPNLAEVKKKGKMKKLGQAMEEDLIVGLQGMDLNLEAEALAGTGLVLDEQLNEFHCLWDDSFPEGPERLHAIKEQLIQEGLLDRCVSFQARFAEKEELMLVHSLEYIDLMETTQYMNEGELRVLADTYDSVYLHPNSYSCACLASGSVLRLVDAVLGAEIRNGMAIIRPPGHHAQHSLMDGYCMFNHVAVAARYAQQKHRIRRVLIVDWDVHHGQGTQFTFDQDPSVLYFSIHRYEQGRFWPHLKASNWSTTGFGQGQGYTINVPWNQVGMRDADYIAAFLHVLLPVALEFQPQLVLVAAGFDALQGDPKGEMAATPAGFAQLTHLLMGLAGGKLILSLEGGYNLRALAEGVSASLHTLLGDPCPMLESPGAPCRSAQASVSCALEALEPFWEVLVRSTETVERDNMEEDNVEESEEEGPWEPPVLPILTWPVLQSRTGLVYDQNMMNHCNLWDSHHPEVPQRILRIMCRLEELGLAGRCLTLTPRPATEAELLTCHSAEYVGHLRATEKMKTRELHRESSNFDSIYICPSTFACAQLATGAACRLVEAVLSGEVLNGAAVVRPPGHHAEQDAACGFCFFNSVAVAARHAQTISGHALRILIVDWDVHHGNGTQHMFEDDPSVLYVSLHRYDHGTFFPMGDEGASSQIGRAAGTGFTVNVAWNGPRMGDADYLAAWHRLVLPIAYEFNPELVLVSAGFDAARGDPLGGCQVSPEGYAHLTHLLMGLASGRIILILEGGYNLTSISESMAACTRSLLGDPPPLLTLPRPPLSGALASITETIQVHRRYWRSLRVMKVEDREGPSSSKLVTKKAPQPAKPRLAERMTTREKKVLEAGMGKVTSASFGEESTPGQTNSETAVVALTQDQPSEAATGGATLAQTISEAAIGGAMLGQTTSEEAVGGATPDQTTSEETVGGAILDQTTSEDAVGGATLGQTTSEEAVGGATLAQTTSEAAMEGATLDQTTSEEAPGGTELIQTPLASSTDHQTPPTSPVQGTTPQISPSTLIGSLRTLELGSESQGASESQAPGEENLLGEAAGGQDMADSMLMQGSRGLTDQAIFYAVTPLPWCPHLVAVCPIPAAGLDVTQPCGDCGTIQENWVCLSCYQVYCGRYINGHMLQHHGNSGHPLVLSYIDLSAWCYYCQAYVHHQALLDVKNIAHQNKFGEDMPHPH
# Homo sapiens = species: Homo sapiens; assay: Selectivity ratio of IC50 for full length C-terminal His/FLAG-tagged human HDAC1 expressed in baculovirus expression system to IC50 full length N-terminal GST-tagged human HDAC6 expressed in baculovirus expression system
# [7] = target: T3, Protein deacetylase HDAC6 (Homo sapiens) (UniProt Q9UBN7); assay: Inhibition of HDAC6 in human NB-4 cells assessed as increase in tubulin acetylation at 10 uM measured after 24 to 48 hrs by Western blot analysis; assay type: cell-based; details: time hrs 24-48
# T3 sequence (whole entry): T2 sequence (Q9UBN7 whole entry)
# [8] = Mutagenicity in Salmonella typhimurium TA100 at 8 uM measured after 90 mins in absence of S9 fraction by Ames test; assay type: toxicity; details: salmonella enterica subsp. enterica serovar typhimurium, s9, 1.5 h
# [9] = Cytotoxicity against mouse NIH3T3 cells assessed as reduction in cell viability measured after 24 hrs by neutral red uptake assay; assay type: cell-based; details: read-out: TC50
# [10] = Mutagenicity in Salmonella typhimurium TA100 at 8 uM measured after 90 mins in presence of S9 fraction by Ames test; assay type: toxicity, subcellular; details: salmonella enterica subsp. enterica serovar typhimurium, s9, 1.5 h
# [11] = Mutagenicity in Salmonella typhimurium TA98 at 8 to 160 uM measured after 90 mins in presence of S9 fraction by Ames test; assay type: toxicity, subcellular; details: salmonella enterica subsp. enterica serovar typhimurium, s9, 1.5 h, dose 8-160 µM
# [12] = Mutagenicity in Salmonella typhimurium TA98 at 8 to 160 uM measured after 90 mins in absence of S9 fraction by Ames test; assay type: toxicity; details: salmonella enterica subsp. enterica serovar typhimurium, s9, 1.5 h, dose 8-160 µM
# KYSE-520 cell line [13] = assay: Induction of apoptosis human KYSE520 cells at 30 to 100 uM measured after 48 hrs by Annexin-V/propidium iodide staining based assay; assay type: functional, cell-based; details: dose microM 30-100, time 48.0 hrs
# U-937 = assay: Cell cycle arrest in human U-937 cells assessed as reduction in accumulation at S-phase at 10 uM measured after 24 to 48 hrs by propidium iodide staining based flow cytometry; assay type: functional; details: time hrs 24-48
# Histone deacetylase 1 [14] = target: T1, Histone deacetylase 1; assay: Inhibition of full length C-terminal His/FLAG-tagged human HDAC1 expressed in baculovirus expression system at 1 uM using ZMAL as substrate incubated for 90 mins by fluorescence assay relative to control
# [15] = target: T3, Protein deacetylase HDAC6 (Homo sapiens); assay: Inhibition of full length N-terminal GST-tagged human HDAC6 expressed in baculovirus expression system at 1 uM using ZMAL as substrate incubated for 90 mins by fluorescence assay relative to control
# T1 sequence (Q13547 whole entry): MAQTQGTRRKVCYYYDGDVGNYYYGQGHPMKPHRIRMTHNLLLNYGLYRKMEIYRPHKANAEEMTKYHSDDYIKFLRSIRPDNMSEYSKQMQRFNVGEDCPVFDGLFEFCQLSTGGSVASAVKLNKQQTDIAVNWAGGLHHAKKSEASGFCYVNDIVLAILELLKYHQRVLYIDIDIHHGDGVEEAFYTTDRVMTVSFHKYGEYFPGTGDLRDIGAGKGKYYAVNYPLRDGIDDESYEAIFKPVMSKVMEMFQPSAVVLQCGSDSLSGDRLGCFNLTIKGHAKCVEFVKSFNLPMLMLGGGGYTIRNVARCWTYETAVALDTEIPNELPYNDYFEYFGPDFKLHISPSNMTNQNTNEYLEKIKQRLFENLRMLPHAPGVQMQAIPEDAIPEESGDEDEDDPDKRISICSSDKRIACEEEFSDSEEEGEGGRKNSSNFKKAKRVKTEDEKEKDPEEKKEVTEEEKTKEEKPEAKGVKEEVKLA
IC50 (Histone deacetylase 1 [5]) [µM],IC50 [6] [nM],Ratio IC50 (Homo sapiens),inhibition (Histone deacetylase 1 [14]) [%],inhibition [15] [%],Compound,Activity (NB-4 [1]),IC50 (OE33) [µM],IC50 (Ca9-22) [µM],IC50 [2] [µM],IC50 (KYSE-520 cell line [3]) [µM],Activity (NB-4 [4]),further results
10.2,227,45,–,–,O=C(NO)c1ccc(CC(=O)N2CCC3(CC2)CN(Cc2ccccc2)c2ccccc23)cc1,Active,13.8,> 1000,54,33.8,Active,inhibition (INH) (Histone deacetylase): Not Active; inhibition [7]: Active
–,–,95,–,–,CC(C)(C)OC(=O)N1CCC2(CC1)CN(Cc1ccc(C(=O)NO)cc1)c1ccccc12,–,–,–,–,–,–,–
6.5,561,12,–,–,O=C(NO)c1ccc(CN2CCC3(CC2)CN(Cc2ccccc2)c2ccccc23)cc1,Active,5.56,19,18,12.8,Active,Activity [8]: Toxic; CC50 at 24 h [9]: 40 µM; Activity [10]: Toxic; Activity [11]: Non-Toxic; Activity [12]: Non-Toxic; Activity (KYSE-520 cell line [13]): Active; Activity (U-937): Active
–,–,–,6.6,51.3,CN1CC2(CCN(Cc3ccc(C(=O)NO)s3)CC2)c2cccc(-c3ccccc3)c21,–,–,–,–,–,–,–
–,–,–,8.5,50,CN1CC2(CCN(Cc3ccc(C(=O)NO)cc3)CC2)c2cccc(-c3ccccc3)c21,–,–,–,–,–,–,–
